ChEMBL document CHEMBL3507680, “University of Dundee, Gates Library screen for HepG2 cell viability”

Test: Human HepG2 cell viability assay in 384 well format
Type: toxicity, cell-based
Set-up: dose 125 nL, time 70.5 hour; cytotoxicity at 70.5 h: concentration not given beside the values
Conditions: HepG2 cells, read-out: Inhibition

Row | SMILES | cytotoxicity at 70.5 h [%]
1 | COc1ncnc(N)c1CNCCc1ccccc1 | -2.72
2 | O=C(Nc1ccccc1)[C@H]1C[C@@H]2CN(Cc3cccnc3)C[C@H]1O2 | -5.98
3 | Cc1cc(NC(=O)C2CN(Cc3ccccc3)CCO2)ccn1 (stereo not drawn) | 13
4 | O=C(O)CN1CCC(c2ccccc2)C1 (stereo not drawn) | -13.6
5 | COc1cc(-c2n[nH]c(CN)n2)cc(OC)c1OC | 23.8
6 | CC(C)Oc1nnc(SCC(=O)NCC(=O)N2CCCC2)s1 | -10.4
7 | CCN1CCCC(O)(CNCc2ccccc2F)C1 (stereo not drawn) | 12.4
8 | CC(C)NC(=O)N1Cc2nccn2CC(CN2CCCC2)C1 (stereo not drawn) | -6.64
9 | CCc1cnc2c(c1Nc1ccc(OC)cc1)c(=O)n(C)c(=O)n2C | 21.4
10 | COc1c[nH]c(C(=O)Nc2nc(C(C)(C)C)cs2)cc1=O | -0.552
11 | COc1ncnc(N)c1CNCC(C)Oc1ccccc1Cl (stereo not drawn) | -3.69
12 | Cc1cc(N(C)Cc2noc(C)n2)n2nc(C)c(C)c2n1 | -8.45
13 | CCc1ncc2c(n1)CN(CC(=O)Nc1nncs1)CC2 | -7.12
14 | CCc1ccc(NC(=O)c2cnc(N3CCN(C)CC3)nc2C)cc1 | 36.8
15 | CC(C)N(Cc1cccnc1)C(=O)CCSc1ccc(C#N)cc1 | 5.31
16 | O=C(NCC(O)COc1ccc(C(F)(F)F)cc1)Nc1nncs1 (stereo not drawn) | -12.1
17 | Cc1ncc(CN(C)CC(O)c2ccc(OC(F)(F)F)cc2)s1 (stereo not drawn) | -3.36
18 | COCCN(C)C(C)Cc1ccccc1OC (stereo not drawn) | -11.8
19 | Cc1nc(C(=O)N2C[C@@H]3CN(S(C)(=O)=O)CCO[C@@H]3C2)cs1 | -1.34
20 | CCOc1cccc(CCNC(=O)Cc2ccn[nH]2)n1 | -7.14
21 | COCc1csc(NC(=O)NCc2ncccc2C)n1 | 0.235
22 | OC[C@@H]1CN2CCN(c3ccccn3)C[C@@H]2[C@H]1c1ccccc1 | -7.31
23 | Cc1cn2c(n1)CCC(NC(=O)CCCOCc1ccccc1)C2 (stereo not drawn) | -12.5

Row | SMILES | cytotoxicity at 70.5 h [%]
24 | CCc1c(O)nc(SCC(=O)c2ccccc2)n(-c2ccccc2)c1=O | -2.09
25 | O=C(NCCn1ccnc1)N1CCN(Cc2cccnc2)CC1 | -5.29
26 | O=C1[C@H]2CC[C@H](CN(C3CCOCC3)C2)N1Cc1cscn1 | 23.4
27 | O=C(CCNC(=O)C1=Cc2ccccc2OC1)NCc1ccncc1 | -2.01
28 | CCC(O)CN1CCN(C(=O)c2sccc2OC)CC1 (stereo not drawn) | 0.647
29 | Cc1c(I)cccc1C(=O)NCc1nnc[nH]1 | -8.8
30 | CC(C)CN(C)Cc1c[nH]nc1-c1ccc(F)cc1F | -15
31 | Cc1noc2ncnc(NC(CC(C)(C)C)c3cccnc3)c12 (stereo not drawn) | -14
32 | Cc1nc(C)n(C2CCCN(C(=O)c3csc(CC(C)C)n3)C2)n1 (stereo not drawn) | -13.9
33 | Cc1cnccc1NCCNC1CCN(CC(C)C)CC1 | 2.02
34 | CCNC(=O)C(C)(C)NC(=O)NCc1cccc(Br)c1 | -8.53
35 | CC(C)NC(=O)c1ccn(COc2c(Cl)cccc2Cl)n1 | -8.01
36 | CCOCC(=O)N1Cc2nnn(C)c2C(COCc2ccccn2)C1 (stereo not drawn) | 9.65
37 | COCCOCc1cccc(NC(=O)N2CCCC2c2ccncc2)c1 (stereo not drawn) | 1.97
38 | Cc1ccc(-c2nc(CN3CCOCC3)no2)cc1N1CCNC1=O | -6.32
39 | O=C(NCC(=O)N1CC2(CCCC2)c2c(F)cccc21)C1CC1 | 0.771
40 | O=C(c1cscn1)N1C[C@@H]2C[C@@H](c3nnc(C4CC4)o3)O[C@@H]2C1 | -8.28
41 | CC(C)c1nnc2n1CCN(Cc1cc(Cl)c3c(c1)OCCO3)C2 | -4.04
42 | CCc1noc(CN(C)Cc2ccc(N3CCCCC3)cc2)n1 | -7.61
43 | Cc1cc(C(O)CCNC(=O)c2ccc(Cl)s2)c(C)o1 (stereo not drawn) | -8.23
44 | O=C1N(Cc2cccc(F)c2F)CCCC1(O)CNCc1ccccc1 (stereo not drawn) | 19.6
45 | Cc1cc(C)n2nc(CC(=O)N[C@H]3C[C@H]4CN(C)CCN4C3)nc2n1 | -7.89
46 | Fc1cnc(N2CC[C@@H]3O[C@@H](COCc4ccccn4)CC[C@@H]32)nc1 | 7.99

Row | SMILES | cytotoxicity at 70.5 h [%]
47 | Cc1ccc2cccc(Oc3nc(C)c(C(=O)O)s3)c2n1 | 14.9
48 | O=C(C1CCC1)N1CCC2(CC1)CNCCO2 | 4.67
49 | O=C(NCCN1CCOCC1)Nc1cc(F)ccc1-n1cccn1 | -0.85
50 | CCS(=O)(=O)N1C[C@@H]2CN(Cc3cccs3)CCO[C@@H]2C1 | 6.04
51 | O=C(NCCC(O)c1ccco1)c1ccccc1Br (stereo not drawn) | -2.47
52 | CCCNC(=O)Cn1nc(C)c2cnn(C(C)(C)C)c2c1=O | 19.1
53 | Cc1nc(C(NC(=O)CC(F)(F)F)c2ccc(Cl)cc2)no1 (stereo not drawn) | -2.37
54 | CN(CC(=O)NCc1ccccn1)CC1CCCN1c1cccnn1 (stereo not drawn) | 0.56
55 | Cc1ccc2nc(CN(Cc3ccc(C#N)cc3)C(C)C)cc(=O)n2c1 | 20.2
56 | Cc1noc(C(C)N(C)CC(=O)NCCc2ccc(Cl)cc2)n1 (stereo not drawn) | 24.6
57 | COc1ccc(-c2cn([C@H](CO)CC(C)C)nn2)cn1 | -4.51
58 | O=C(Cn1ccnc1)N1CCC(n2cc(-c3cccc(Cl)c3)nn2)CC1 | 22.5
59 | N#Cc1c2n(c3c(=O)[nH]cnc13)CCCCC2 | 2.85
60 | COCC1Cn2nnc(-c3cnn(C)c3)c2CN1Cc1ccc(C)s1 (stereo not drawn) | 4.51
61 | COc1ccc(-c2cc(C3(O)CCOC(C)(C)C3)on2)cc1 (stereo not drawn) | -11.5
62 | Cc1ncc(-c2ccnc(NC3CC3)n2)c(-c2cccnc2)n1 | 14.2
63 | O=C(NCCNc1cnccn1)N1CC=C(c2ccc(O)cc2)CC1 | 2.47
64 | CC(C)c1cc(NCC(O)CO)n2nccc2n1 (stereo not drawn) | -0.638
65 | O=C1CC(c2ccco2)c2sc(C(=O)O)c(-c3ccccc3)c2N1 (stereo not drawn) | -13.5
66 | Cc1ccc(NC(=O)Nc2cnc(N3CCN(C)CC3)nc2)c(Cl)c1 | 3.18
67 | CC(Nc1nc2c(cnn2C)c(=O)[nH]1)c1ccc(F)cc1 (stereo not drawn) | -2.55
68 | O=C(NCCn1ccnc1C1CCOC1)c1cccnc1 (stereo not drawn) | -1.19
69 | Cc1noc(C)c1C(=O)N1CCCN(Cc2nccn2C(C)C)CC1 | 0.0993

Row | SMILES | cytotoxicity at 70.5 h [%]
70 | O=C(c1ccccc1)N1CCO[C@@H]2CN(c3ncccn3)C[C@@H]2C1 | -6.94
71 | Cc1ccc(CN2C[C@H](OCCN(C)C)[C@H]3OCCC[C@H]32)o1 | 3.05
72 | CCC(CC)c1cc(CNC(=O)N2CCCC(C(=O)NC)C2)on1 (stereo not drawn) | -0.471
73 | CN(Cc1cccs1)C(=O)c1ccc(=O)n(C)c1 | -5.37
74 | Cc1nc(C2CCN(CC(=O)NC3CC3)CC2)cc(N2CCOCC2)n1 | -0.642
75 | O=C(c1ccco1)N1CCCC2(CN(Cc3cccs3)CCO2)C1 (stereo not drawn) | 1.5
76 | CC(C)NC(=O)CC1CC2(CCN(S(C)(=O)=O)CC2)c2ccccc21 (stereo not drawn) | 3.25
77 | O=C(NCCn1cccc1)C1CCC(=O)N(C2CCCC2)C1 (stereo not drawn) | -8.05
78 | Cn1cc(CN2CCc3ncn(C)c3C2COCc2cccnc2)cn1 (stereo not drawn) | -0.736
79 | CNC(=O)C1CCN(C(=O)NCc2ccc(C)n2C)CC1 | -4.71
80 | CCCc1nc(CN(CC)C(=O)c2ccc3c(c2)nnn3C)no1 | -2.39
81 | Cc1cnc(CNC(=O)[C@@]23CCO[C@@H]2CCN(c2ncccn2)C3)cn1 | -12.7
82 | CCOCC1CCN(C(=O)Nc2ccc(-c3csnn3)cc2)C1 (stereo not drawn) | -11.9
83 | CCc1ccc(-n2nnc(C(=O)O)c2-c2ccccn2)cc1 | -26.2
84 | COc1ccc(OC)c(-n2cnnc2COC(C)C)c1 | -0.141
85 | CN(C)Cc1cc(=O)n2c(n1)CN(CC1CCOCC1)CCC2 | -10.5
86 | Cc1cc(CN(C)C(=O)c2cccc(CCC(C)(C)O)c2)no1 | -7.67
87 | CC(C)N(Cc1cccnc1)C(=O)CNc1ccc(C#N)cc1 | -12.5
88 | CC(C)CC(C)NCc1cccnc1N1CCOCC1 (stereo not drawn) | 19.8
89 | O=C(c1cccc(F)c1)N1CCN2C[C@H](OCc3cccnc3)C[C@H]2C1 | -19
90 | O=C1OCCN1Cc1ncnn1Cc1c(F)cccc1Cl | 11.9
91 | CCCS(=O)(=O)N1Cc2nccn2CC(Cn2cncn2)C1 (stereo not drawn) | 20.3
92 | CN(CCNS(C)(=O)=O)CC(c1cccs1)N1CCOCC1 (stereo not drawn) | -8.66

Row | SMILES | cytotoxicity at 70.5 h [%]
93 | CS(=O)(=O)N1CCC2(CCN(Cc3nccs3)CC2)CC1 | -0.411
94 | Cc1ccc(-n2cc(CN3CCOCC3)c(-c3cccc(C)c3)n2)cc1 | -2.44
95 | CCC(=O)N1CCC2(COCc3cnc(N4CCOCC4)nc32)C1 (stereo not drawn) | 1.55
96 | Cn1cc(C(C)(O)CNc2ccccn2)cn1 (stereo not drawn) | 2.38
97 | COCCn1nc(C(=O)N(C)Cc2cnn(C)c2)ccc1=O | 42.3
98 | COc1ccccc1CCNC(=O)N(C)C(C)CS(C)(=O)=O (stereo not drawn) | 24.3
99 | COc1c(CNCC(O)c2cccc(F)c2)c(C(C)C)nn1C (stereo not drawn) | 2.55
100 | CCn1ncc2c1CCCC2NCc1cc(Cl)c(OC)c(OC)c1 (stereo not drawn) | 27.8
101 | Cc1nc(CN2C(=O)CC[C@@H]3[C@H]2CCN3C(=O)c2ccccn2)cs1 | -4.48
102 | COCc1ccc(CNC(=O)C2=NN(c3ccccc3)C(=O)CN2)cc1 | -12.2
103 | CN(C)Cc1cn(-c2ccccc2C(=O)NCC2CCCCN2C)cn1 (stereo not drawn) | 25.3
104 | O=c1c(NCCO)c(N2CCN(c3ccccc3)CC2)c1=O | -4.94
105 | O=C(Nc1ccccc1-c1ccccc1)N1C[C@@H]2CNC[C@]2(C(=O)O)C1 | -2.53
106 | CC(C)N1[C@H](Cn2cncn2)C[C@@H]2CN(c3ncccn3)CC[C@@H]21 | -0.391
107 | O=C(Nc1nc[nH]n1)c1cc(-c2ccc(F)cc2)n[nH]1 | -14.4
108 | CCN(Cc1nc(C)no1)C(=O)C1CC(=O)N(Cc2cccnc2)C1 (stereo not drawn) | 17.6
109 | Cc1cc(C)n(CC(=O)N2CCC(c3ccn4nccc4n3)CC2)n1 | 26.6
110 | COc1cc(OC)cc(-c2noc(CC(N)c3ccccc3)n2)c1 (stereo not drawn) | -5.26
111 | COC(=O)C(C)(C)NC(=O)C1CC(=O)N(CC2CC2)C1 (stereo not drawn) | -6.45
112 | O=C(NCc1ccc(-n2cncn2)nc1)N(CC1CCOC1)C1CC1 (stereo not drawn) | -5.41
113 | O=C1NCC[C@]12CN(Cc1ccco1)C[C@H]2c1ccccc1 | 1.63
